Measured values: ChEMBL document CHEMBL1240309 (Nat Chem Biol, 2006)
Calls of active or inactive are those of the source. The rule behind the calls is not given here.

Experiments:
Caenorhabditis elegans [1] = assay: Antiapoptotic activity against Caenorhabditis elegans ced-3(n2438) mutant assessed as number of extra cells in anterior pharynx at 50 to 250 mM dissolved in soybean oil; format: functional, organism-based
[2] = Octanol-water partition coefficient, log P of the compound; format: physicochemical
Caenorhabditis elegans [3] = assay: Antiapoptotic activity against Caenorhabditis elegans ced-4(n2273) mutant assessed as number of extra cells in anterior pharynx L3 and L4 larvae at 250 mM dissolved in soybean oil; format: functional, organism-based
Caenorhabditis elegans [4] = assay: Antiapoptotic activity against Caenorhabditis elegans ced-3(n2447) S446L mutant assessed as number of extra cells in anterior pharynx L3 and L4 larvae at 250 mM dissolved in soybean oil; format: functional, organism-based
Caenorhabditis elegans [5] = assay: Antiapoptotic activity against Caenorhabditis elegans ced-3(n2438) G474R mutant assessed as number of extra cells in anterior pharynx L3 and L4 larvae at 250 mM dissolved in soybean oil; format: functional, organism-based
Caenorhabditis elegans [6] = assay: Antiapoptotic activity against Caenorhabditis elegans ced-3(n2433) mutant assessed as number of extra cells in anterior pharynx L3 and L4 larvae at 250 mM dissolved in soybean oil; format: functional, organism-based
Caenorhabditis elegans [7] = assay: Antiapoptotic activity against Caenorhabditis elegans ced-9(n1950) mutant assessed as number of extra cells in anterior pharynx L3 and L4 larvae at 250 mM dissolved in soybean oil; format: functional, organism-based
Caenorhabditis elegans [8] = assay: Antiapoptotic activity against Caenorhabditis elegans ced-8(n1891) mutant assessed as number of extra cells in anterior pharynx L3 and L4 larvae at 250 mM dissolved in soybean oil; format: functional, organism-based
Caenorhabditis elegans [9] = assay: Antiapoptotic activity against Caenorhabditis elegans ced-3(n2436) mutant assessed as number of extra cells in anterior pharynx L3 and L4 larvae at 250 mM dissolved in soybean oil; format: functional, organism-based

With `CCCCC(CC)COC(=O)c1ccccc1C(=O)OCC(CC)CCCC` (centres undefined) the Activity (Caenorhabditis elegans [1]) was “inactive”.

For `Clc1ccc(Cl)cc1` [1,4-DICHLOROBENZENE], the logP [2] was 3.5, the Activity (Caenorhabditis elegans [3]) was “Active” and the Activity (Caenorhabditis elegans [4]) was “Active”. The Activity (Caenorhabditis elegans [5]) was “Active”, the Activity (Caenorhabditis elegans [6]) was “Active” and the Activity (Caenorhabditis elegans [7]) was “Active”. The Activity (Caenorhabditis elegans [8]) was “Active” and the Activity (Caenorhabditis elegans [9]) was “Active”.
